Laboratory results published in US6375928B1, “Neutrophil stimulating peptides” (Peptech Limited, priority 1990, dated 2002).
Entries after “also recorded” stand apart in the source; their conditions may differ.

Key:
human neutrophils [1] = assay: Chemiluminescence assay: priming of neutrophils for F-met-leu-phe response (respiratory burst); assay type: cell-based; conditions: for lucigenin dependent chemiluminescence, peak of response: 20 min pretreatment before f-met-leu-phe; for chemiluminescence (repeat experiment, Table 3): peptide + fMLP
Procedure: Purified human neutrophils were pretreated with peptide for 20 minutes before the addition of f-met-leu-phe. The lucigenin dependent chemiluminescence response, which reflects superoxide production, was then measured. The results obtained are set out in Table 2 and are expressed as mV of lucigenin dependent chemiluminescence and represent the maximal cell activity attained.
Results are expressed as mV of lucigenin dependent chemiluminescence and represent peak of response i.e. the maximal cell activity attained.

P. falciparum = assay: Ability of peptide-stimulated neutrophils to inhibit in vitro growth of malaria parasites; assay type: cell-based; conditions: neutrophils incubated with peptide 37° C. 30 minutes; thawed normal, normal and immune serum (FIG. 5)
Procedure: The ability of neutrophils stimulated with peptides 418 and 419 (SEQ ID Nos. 17 & 18) to inhibit in vitro growth of malaria parasites was assessed.
Briefly, neutrophils were incubated with peptides 418 and 419 (SEQ ID NOs. 17 & 18) at 37° C. for 30 minutes and then washed with HBSS. The neutrophils were then added to a culture of red blood cells infected with P. falciparum. The cultures were then examined microscopically for evidence of parasite death.

Pseudomonas aeruginosa = assay: Pseudomonas experiment: chronic lung infection in mice; assay type: in vivo; conditions: female Swiss mice, chronic Pa lung infection; 0.5 mg peptide tail-vein each day for 3 days from day 12; n=4; p<0.05 vs carrier (5.25)
Procedure: Chronic lung infection by Pseudomonas aeruginosa (Pa) is common in cystic fibrosis. […] The present inventors reasoned that pre-sensitising neutrophils with TNF intravascularly, prior to their entry into the lung, may overcome this problem. […] The ability of i.v.-injected 419 (SEQ ID NO. 18) to protect against chronic lung injury induced by Pseudomonas was tested. Chronic lung infections were established in 120 14 week female Swiss mice by introducing the bacteria suspended in agar beads (<200 μm diameter) into the lung. Mice were anaesthetised and 30 μl of bead suspension introduced via a polyethylene cannula into the right bronchus through a small incision between the tracheal rings. After recover, animals (n=20) developed a chronic infection followed for at least 10-14 days. Control animals included: sham-operated (n=2); and those inoculated with sterile beads (n=6) or with beads containing fresh, heat-killed Pa (n=5).

monocytes = assay: Priming of monocytes for a respiratory burst (chemiluminescence); assay type: cell-based; conditions: 10^6 monocytes/tube/ml, 30 min pre-incubation 37° C.
Procedure: Peptide 419 (SEQ ID NO. 18) was assayed for its ability to prime monocytes for a respiratory burst. This assay was conducted essentially as described above for neutrophils except that the cells were cultured for 24 hours prior to assay.

ICAM = assay: Induction of ICAM on human umbilical vein endothelial cells (HUVEC); assay type: cell-based; conditions: peptide 1 mg, four hours at 37° C. (FIG. 7)
Procedure: Peptide 419 (SEQ ID NO. 18) was tested for its ability to induce ICAM using the following procedure.
The cells were then washed extensively with PBS containing Ca^++ and Mg^++ and fixed ([…] 0.025% guteraldehyde, overnight, 4° C.). The cells were again washed, and incubated with anti-ICAM antibody (84H10) for 1 hr at room temperature. The cells were washed and incubated for a further 1 hr at room temperature in the presence of rabbit anti-mouse Ig-HRP. Surface expression of Icam was then quantitated using the ABTS substrate by absorption at OD405 nm.

neutrophils [2] = assay: Superoxide formation, cytochrome reduction assay; assay type: cell-based
Source text: The effect of peptides 308 and 309 (SEQ ID NOs. 10 & 11) on superoxide formation was examined by the cytochrome reduction assay, according to the procedure of Ferrante, 1989 (Infection and Immunity), 57: 2115-2122). The results, expressed as n moles of O2/5×10^5 cells as set out in Table 6.

neutrophils [3] = assay: Neutrophil random migration out of wells in agarose; assay type: cell-based
Source text: Migration of cells is an important property by which cells reach infection sites. Their accumulation at these sites is also dependent on the capacity of inflammatory mediators to inhibit their migration out of the sites.

neutrophils [4] = assay: Chemotactic properties, neutrophil migration under agarose; assay type: cell-based
Procedure: 5 μl of neutrophils (2×10^5 cells) were added to the inner well, with chemotactic agent or control medium added to the outer wells. Migration at various time intervals was then measured.

neutrophils [5] = assay: Neutrophil degranulation: β-glucuronidase release (azurophilic granules); assay type: cell-based; conditions: for β-glucuronidase release, Exp. 1 / β-glucuronidase release, Exp. 2 / β-glucuronidase release, Exp. 3 / β-glucuronidase release, Exp. 4: in the presence of CytoB
neutrophils [6] = assay: Neutrophil degranulation: Vitamin B12 binding protein release (specific granules); assay type: cell-based; conditions: for Vitamin B12 Binding Protein, Exp. 1 / Vitamin B12 Binding Protein, Exp. 2 / Vitamin B12 Binding Protein, Exp. 3 / Vitamin B12 Binding Protein, Exp. 4: in the presence of CytoB
human neutrophils [7] = assay: Chemiluminescence assay: priming of neutrophils for F-met-leu-phe response (respiratory burst); assay type: cell-based; conditions: peptide alone
[8] = with fMLP, 419 100 μg/10^6 monocytes, 50 U TNF or no pre-treatment
[9] = without fMLP, 419 100 μg/10^6 monocytes or 50 U TNF
[10] = towards agent well, 1 × 10^−7 M fMLP, peptide, or 10^3 U/ml TNFα, 2×10^5 neutrophils
[11] = peptide 100 μg/10^6 cells (or HBSS) + fMLP
[12] = peptide 100 μg/10^6 cells, no fMLP

## P S T H V L I T H T I (PSTHVLITHTI) [Peptide 419]
Human neutrophils [1]
  neutrophil stimulating activity / stimulation of neutrophil respiratory burst (in words): neutrophil stimulating activity
Human neutrophils [1]; 100 μg peptide, priming neutrophils for respiratory burst
  Chemiluminescence mean + sem: 18.6 ± 0.5 mV
P. falciparum
  inhibition of in vitro growth of malaria parasites by stimulated neutrophils (in words): more effective than TNF
Pseudomonas aeruginosa
  percentage peripheral consolidation, mean (se): 0.25 (se 0.25) %
monocytes; [8]
  Peak mV Chemiluminescence, Mean ± S.D.: 240.0 ± 32.527 mV
  Peak mV Chemiluminescence, experiment 1: 263.0 mV
  Peak mV Chemiluminescence, experiment 2: 217.0 mV
monocytes; [9]
  Peak mV Chemiluminescence, Mean ± S.D.: 3.385 ± 1.365 mV
  Peak mV Chemiluminescence, experiment 1: 2.42 mV
  Peak mV Chemiluminescence, experiment 2: 4.35 mV
ICAM
  induction of ICAM surface expression (in words): does not induce the cell adhesion molecule ICAM

## G L Y L I Y S Q V L F K G Q G (GLYLIYSQVLFKGQG) [Peptide 308]
Human neutrophils [1]
  neutrophil stimulating activity / stimulation of neutrophil respiratory burst (in words): neutrophil stimulating activity
  priming of neutrophils for the respiratory burst associated with f-met-leu-phe treatment (in words): found to prime human neutrophils for the respiratory burst; also recorded: particularly potent primer of neutrophils
Human neutrophils [1]; peptide 1 μg/10^6 cells
  lucigenin dependent chemiluminescence, peak of response: 0.91 mV
Human neutrophils [1]; peptide 10 μg/10^6 cells
  lucigenin dependent chemiluminescence, peak of response: 4.80 mV
Human neutrophils [1]; peptide 100 μg/10^6 cells
  lucigenin dependent chemiluminescence, peak of response: 49.52 mV
Human neutrophils [1]; 10 μg/10^6 cells
  chemiluminescence (repeat experiment, Table 3): 2.74 mV
Human neutrophils [1]; 100 μg/10^6 cells
  chemiluminescence (repeat experiment, Table 3): 28.56 mV
Neutrophils [2]; peptide + fMLP, 10 μg/5 × 10^5 cells
  superoxide formation: 5.00 n moles of O2/5×10^5 cells
Neutrophils [2]; peptide + fMLP, 100 μg/5 × 10^5 cells
  superoxide formation: 6.729 n moles of O2/5×10^5 cells
Neutrophils [2]; peptide alone, 10 μg/5 × 10^5 cells
  superoxide formation: 2.78 n moles of O2/5×10^5 cells
Neutrophils [2]; peptide alone, 100 μg/5 × 10^5 cells
  superoxide formation: 4.892 n moles of O2/5×10^5 cells
Neutrophils [3]
  effect on neutrophil random migration (in words): potent inhibitors of neutrophil migration
Neutrophils [3]; 10 μg/10^6 cells
  Inhibition of Migration: 0%
Neutrophils [3]; 100 μg/10^6 cells
  Inhibition of Migration: 100%
Neutrophils [4]
  chemotactic properties (in words): strongly chemotactic
Neutrophils [4]; [10]
  Migration distance at 1.5 h, Agent: 0.66 mm
  Migration distance at 2.5 h, Agent: 1.41 mm
Neutrophils [5]; absence of fMLP
  release from azurophilic granules (β-glucuronidase), in words: decreased the release
Neutrophils [5]; [11]
  β-glucuronidase release, Exp. 1: 17.57%
  β-glucuronidase release, Exp. 2: 28.86%
  β-glucuronidase release, Exp. 3: 17.86%
  β-glucuronidase release, Exp. 4: 18.20%
Neutrophils [5]; [12]
  β-glucuronidase release, Exp. 1: 0.8%
  β-glucuronidase release, Exp. 2: 0.65%
  β-glucuronidase release, Exp. 3: 2.76%
  β-glucuronidase release, Exp. 4: 0.72%
Neutrophils [5]; presence of fMLP
  release from azurophilic granules (β-glucuronidase), in words: still apparent following stimulation with fMLP
Neutrophils [6]; absence of fMLP
  release from specific granules (Vitamin B12 binding protein), in words: decreased the release
Neutrophils [6]; [11]
  Vitamin B12 Binding Protein, Exp. 1: 35.81
  Vitamin B12 Binding Protein, Exp. 2: 27.59
  Vitamin B12 Binding Protein, Exp. 3: 26.55
  Vitamin B12 Binding Protein, Exp. 4: 21.51
Neutrophils [6]; [12]
  Vitamin B12 Binding Protein, Exp. 1: 2.00
  Vitamin B12 Binding Protein, Exp. 2: 2.08
  Vitamin B12 Binding Protein, Exp. 3: 5.70
  Vitamin B12 Binding Protein, Exp. 4: 2.25
Neutrophils [6]; presence of fMLP
  release from specific granules (Vitamin B12 binding protein), in words: still apparent following stimulation with fMLP
Human neutrophils [7]; 10 μg/10^6 cells
  chemiluminescence (repeat experiment, Table 3): 1.00 mV
Human neutrophils [7]; 100 μg/10^6 cells
  chemiluminescence (repeat experiment, Table 3): 11.76 mV
